Test results taken from patent US9365583B2, “Substituted pyrazoles and uses thereof” (Genentech, Inc., priority 2013, dated 2016).

Each compound was assayed against T1, N-terminally GST-tagged DLK (catalytic domain amino acid 1-520) (Homo sapiens, UniProt Q12852) (assay: DLK TR-FRET inhibition assay). Details: 5 nM GST-DLK, 40 nM HIS-MKK4 K131M substrate, 30 μM ATP, 60 minutes at ambient temperature.
T1 construct: N-terminally GST-tagged DLK (catalytic domain amino acid 1-520); purchased Carna Bioscience
T1 sequence (Q12852 1-520): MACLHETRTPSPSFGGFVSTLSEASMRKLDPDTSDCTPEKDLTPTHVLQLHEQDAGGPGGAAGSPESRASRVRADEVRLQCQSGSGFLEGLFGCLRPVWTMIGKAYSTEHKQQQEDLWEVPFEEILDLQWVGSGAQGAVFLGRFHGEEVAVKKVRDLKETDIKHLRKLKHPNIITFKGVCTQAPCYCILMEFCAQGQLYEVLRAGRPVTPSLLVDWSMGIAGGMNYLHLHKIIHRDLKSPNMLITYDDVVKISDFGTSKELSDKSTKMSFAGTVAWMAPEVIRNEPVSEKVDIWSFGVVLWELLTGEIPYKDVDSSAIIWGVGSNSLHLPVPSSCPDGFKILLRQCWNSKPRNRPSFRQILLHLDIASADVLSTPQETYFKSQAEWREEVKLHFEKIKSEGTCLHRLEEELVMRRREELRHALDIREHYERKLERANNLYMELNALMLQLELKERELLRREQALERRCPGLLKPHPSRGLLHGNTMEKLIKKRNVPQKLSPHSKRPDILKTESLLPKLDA
Assay type: biochemical
Outline: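 Phosphorylated MKK4 was quantified by TR-FRET (Eu-labelled anti-phospho-MKK4, D2 anti-HIS; 3 h, 665 and 615 nm emission) after EDTA quench. Reactions held 5 nM GST-tagged DLK catalytic domain (1-520), 40 nM HIS-MKK4 K131M substrate, 30 μM ATP and compound (3-fold series from 20 uM), 60 min, room temperature, pH 7.5.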
A Ki of 4.7 nM was found for COCCN(C)[C@@H]1C[C@@H]2[C@H](C1)[C@H]2c1cc(-c2cnc(N)c(C(F)(F)F)c2)nn1C(C)C [compound 291, 5-(1-isopropyl-5-((1R,3s,5S,6r)-3-((2-methoxyethyl)(methyl)amino)bicyclo[3.1.0]hexan-6-yl)-1H-pyrazol-3-yl)-3-(trifluoromethyl) pyridin-2-amine] in this work. A Ki of 4.6 nM was found for Nc1ncc(-c2cc([C@H]3[C@@H]4C[C@@H](N5CCOCC5)C[C@@H]43)n(CC3CC3)n2)cc1OC(F)(F)F [compound 292, 5-(1-(cyclopropylmethyl)-5-((1R,3s,5S,6r)-3-morpholinobicyclo [3.1.0]hexan-6-yl)-1H-pyrazol-3-yl)-3-(trifluoromethoxy) pyridin-2-amine] in this work. A Ki of 3 nM was found for Nc1ncc(-c2cc([C@H]3[C@@H]4C[C@@H](N5CCOCC5)C[C@@H]43)n(CC(F)F)n2)cc1C(F)(F)F [compound 293, 5-(1-(2,2-difluoroethyl)-5-((1R,3s,5S,6r)-3-morpholinobicyclo [3.1.0]hexan-6-yl)-1H-pyrazol-3-yl)-3-(trifluoromethyl)pyridin-2-amine] in this work. A Ki of 8.9 nM was found for CC(C)n1nc(-c2cnc(N)c(C(F)(F)F)c2)cc1[C@H]1[C@@H]2C[C@@H](OC3COC3)C[C@@H]21 [compound 294, 5-(1-isopropyl-5-((1R,3s,5S,6r)-3-(oxetan-3-yloxy)bicyclo[3.1.0]hexan-6-yl)-1H-pyrazol-3-yl)-3-(trifluoromethyl)pyridin-2-amine] in this work. A Ki of 2.4 nM was found for Nc1ncc(-c2cc([C@H]3[C@@H]4C[C@H](N5CCOCC5)C[C@@H]43)n(CC3CC3)n2)cc1OC(F)(F)F [compound 295, 5-(1-(cyclopropylmethyl)-5-((1R,3r,5S,6r)-3-morpholinobicyclo [3.1.0]hexan-6-yl)-1H-pyrazol-3-yl)-3-(trifluoromethoxy) pyridin-2-amine] in this work.
